From patent US6121319A (priority 1998, dated 2000)

Legend:
NF-kB [1] = test: NF-kB activation in TNF-treated human aortic endothelial cells (gel shift); assay type: cell-based; details: HAEC, 25 micromolar, 1, 2 or 4 h
Method: Human aortic endothelial cells were treated with TNF alone or in combination with 25 micromolar MSE or PDTC for a period of either one hour, two hours or four hours. The cells were washed and the nuclear extracts were prepared to perform gel shift analysis using a VCAM-1 promoter probe.

NF-kB [2] = details: diverse signals; cited from earlier work
VCAM-1 [3] = details: PCT/US95/05880; cited from earlier work
VCAM-1 [4] = details: U.S. Pat. No. 5,380,747; cited from earlier work
VCAM-1 [5] = test: VCAM-1 expression in human aortic endothelial cells (TNF-induced, ELISA); assay type: cell-based; details: for VCAM-1 expression as a percentage of VCAM-1 expression induced by TNF alone: HAEC, 2.5, 5, 10 and 100 μM, 16 h, 37 °C, FIG. 1
Method: The cells were incubated for sixteen hours in cell culture media at 37 degrees Celsius in a tissue culture incubator. After sixteen hours, the cells were washed, and incubated with antibodies to VCAM-1. The amount of antibody binding to the cells was determined by a colorometric ELISA assay using a horseradish peroxidase conjugated antibody to the VCAM-1 antibody.

ICAM-1 = ICAM-1 expression in human aortic endothelial cells (TNF-induced, ELISA); assay type: cell-based; details: HAEC; 2.5, 5, 10 and 100 μM; 16 h; FIG. 2
Method: The cells were incubated for sixteen hours in cell culture media at 37 degrees Celsius in a tissue culture incubator. After sixteen hours, the cells were washed, and incubated with antibodies to ICAM-1. The amount of antibody binding to the cells was determined by a colorometric ELISA assay using a horseradish peroxidase conjugated antibody to the ICAM-1 antibody.

MCP-1 [6] = test: MCP-1 expression in human aortic endothelial cells (TNF, ELISA); assay type: cell-based
Excerpt: The cell culture media was harvested and used to quantitate the amount of MCP-1 using a color-based ELISA assay. […] MCP-1 is a chemoattractant protein that recruits monocytes to an atherosclerotic lesion.

VCAM-1 [7] = test: VCAM-1 gene expression in lungs of LPS-challenged mice (Northern blot); assay type: in vivo, mouse; details: subcutaneous time release pellets, 150 mg/kg/day
Method: (§1) MSE administered via subcutaneous implanted pellets (150 mg/kg/day time release pellets) blocks LPS-induced gene expression of VCAM-1 and MCP-1 in lungs in a mice model.
(§2) FIG. 4 is a Northern blot analysis of VCAM-1 and MCP-1 gene expression from RNA isolated from the lungs of LPS-challenged ApoE knockout mice. […] After one week they were challenged intraperitoneally with 1 mg/kg of LPS. After two hours the animals were sacrificed and lungs frozen for RNA isolation. The RNA was size fractionated by denaturing 1.0% agarose gel electrophoresis, transferred to a nylon membrane and hybridized with a mouse JE-specific ^32 P-labelled cDNA probe. The membrane was subsequently stripped and hybridized with a mouse VCAM-1 specific cDNA and then a chicken β-actin specific cDNA probe.

MCP-1 [8] = test: MCP-1 gene expression in lungs of LPS-challenged mice (Northern blot); assay type: in vivo, mouse; details: subcutaneous time release pellets, 150 mg/kg/day
Method: as §1, §2

lipid-fed rabbits = test: Cholesterol and lipoprotein cholesterol in plasma of lipid-fed rabbits, three weeks; assay type: in vivo, rabbit; details: 0.5% wt/wt in high-fat chow, p<0.05, FIG. 5
Excerpt: Control animals were fed the same chow without drug added. Lipoprotein fractions were separated from whole plasma by […] and analyzed for cholesterol content.

[9] = Drug level in plasma of rabbits fed a high cholesterol diet for three weeks (HPLC); assay type: in vivo, rabbit; details: 0.5% wt/wt in high-fat chow, FIG. 6
Excerpt: The drugs were extracted from plasma with ether and analyzed by high pressure liquid chromatography.

[10] = tested on: New Zealand white rabbits; test: Cholesterol and lipoproteins in cholesterol-fed New Zealand White rabbits, six weeks; assay type: in vivo, rabbit
Method: (§3) Oral administration of MSE (150 mg/kg/day) for six weeks lowers total plasma, ApO-B containing and HDL cholesterol levels in a New Zealand White rabbit model.
(§4) After six weeks, lipoprotein fractions were separated from whole plasma by […], and analyzed for cholesterol and triglyceride content.

aortic lesions = test: Aortic lesions in hypercholesterolemic rabbits (sudan-4 staining); assay type: in vivo, rabbit; details: six weeks
Method: as §3, §4
(§5) The rabbits described in Example 8 were sacrificed and aortas obtained. The aortas were stained with sudan-4 and the extent of staining analyzed. FIG. 9 is a graph of the percent aortic surface area covered by lesions in MSE treated and untreated lipid-fed rabbits.

VCAM-1 [11] = test: VCAM-1 expression in aorta sections of hypercholesterolemic rabbits (immunostaining); assay type: in vivo, rabbit; details: six weeks; for reduction in VCAM-1 expression in aorta sections: immunostaining, approx. 150 mg/kg/day (probucol: similar experiment, same dose)
Excerpt: as §4, §5
(§6) Sections of the aortas were immunostained for VCAM-1 expression or macrophage accumulation using antibodies for VCAM-1 or Ram-11 antigen.

[12] = tested on: macrophage accumulation (Ram-11 antigen); test: Macrophage accumulation in aorta sections of hypercholesterolemic rabbits (Ram-11 immunostaining); assay type: in vivo, rabbit; details: six weeks; for reduction in macrophage accumulation in aorta sections: immunostaining (Ram-11), approx. 150 mg/kg/day (probucol: similar experiment, same dose)
Excerpt: as §4, §5, §6

[13] = tested on: hypercholesterolemic monkeys; test: Serum LDL and cholesterol in hypercholesterolemic cynomolgus monkeys; assay type: in vivo; details: for effect on HDL: monkeys
Method: Cynomolgus monkeys were made hypercholesterolemic prior to AGE-3 dosing by feeding a high fat cholesterol diet. The monkeys were then dosed orally with AGE-3 (100 mg/kg/day) for two weeks. The percent serum LDL cholesterol decreased in a range from 4 to 60 percent in the monkeys over this time period. Administration of the drug was then terminated, and serum cholesterol checked on day 29.

[14] = Plasma level of MSE over days of treatment (FIG. 10); assay type: in vivo; details: FIG. 10, in micromolar
apoE-knock out mice = test: Lipoproteins in apoE-knock out mice, two weeks oral; assay type: in vivo, mouse; details: for effect on HDL / effect on total cholesterol and LDL: mice
bacteria = test: Bacterial Ames test
Excerpt: MSE is not a mutagen in the bacterial Ames test.

rats = test: Two-week oral administration to rats (toxicity, clinical chemistry); assay type: in vivo, rat; details: 1000 mg/kg/day
rabbits = test: Effect on lipoproteins in rabbits (summary statement); assay type: in vivo, rabbit; details: for effect on HDL: rabbits (species not restated for probucol)
Excerpt: Statins reduce LDL and may or may not effect HDL.

C57 black mice = test: Lipoproteins in cholesterol-fed C57 black mice, two weeks oral; assay type: in vivo, mouse
VCAM-1 [15] = test: VCAM-1 expression (general statement)
[16] = tested on: LDL receptor-deficient rabbits; details: Carew et al.; cited from earlier work
[17] = cited from earlier work
[18] = 0.5 wt/wt (approx. 150 mg/kg/day) in diet, FIG. 8
[19] = oral, 150 mg/kg/day, New Zealand White rabbit
[20] = listed as monosuccinic acid ester of probucol

Compound: S=C(S)N1CCCC1 [PDTC, pyrrolidine dithiocarbamate]
- effect on NF-kB activation (NF-kB [1]): does inhibit the activation of NF-kB
- activation of NF-kB in vascular endothelial cells (NF-kB [2]): specifically inhibited
- induction of VCAM-1 by polyunsaturated fatty acids and their hydroperoxides (VCAM-1 [3]): supressed
- expression of VCAM-1 in vascular endothelial cells (VCAM-1 [4]): can be inhibited

Compound: CC(C)(Sc1cc(C(C)(C)C)c(O)c(C(C)(C)C)c1)Sc1cc(C(C)(C)C)c(OC(=O)CCC(=O)O)c(C(C)(C)C)c1 [MSE, monosuccinic acid ester of probucol]
- VCAM-1 expression as a percentage of VCAM-1 expression induced by TNF alone (VCAM-1 [5]): inhibits the expression of VCAM-1
- TNF-induced VCAM-1 gene expression (VCAM-1 [5]; human aortic endothelial cells): selectively inhibits
- ICAM-1 expression as a percentage of ICAM-1 expression induced by TNF alone (ICAM-1): only a slight effect on ICAM expression which was not very concentration dependent
- MCP-1 expression (MCP-1 [6]; HAEC, MSE 10 μM, probucol 50 μM, TNF, 4 h, FIG. 3): inhibited the expression of MCP-1 to a greater extent than probucol itself
- TNF-induced MCP-1 gene expression (MCP-1 [6]; human aortic endothelial cells): selectively inhibits
- LPS-induced gene expression of VCAM-1 in lungs (VCAM-1 [7]): blocks
- LPS-induced gene expression of MCP-1 in lungs (MCP-1 [8]): blocks
- reduction in lipoprotein fractions (cholesterol) (lipid-fed rabbits): statistically significant reduction in all lipoprotein fractions
- drug level in plasma, MSE vs probucol [9]: similar
- effect on NF-kB activation (NF-kB [1]): does not affect NF-kB activation
- cholesterol in IDL [10, 18]: lowered more by treatment with AGE-3 than with probucol
- cholesterol in VLDL [10, 18]: lowered more by treatment with AGE-3 than with probucol
- total cholesterol [10, 18]: lowered more by treatment with AGE-3 than with probucol
- ApO-B containing cholesterol levels [10, 19]: lowers
- HDL cholesterol levels [10, 19]: lowers
- total plasma cholesterol [10, 19]: lowers
- atherosclerosis lesion formation (aortic lesions; oral, 150 mg/kg/day): marked inhibition
- aortic sudan-4 staining (aortic lesions; approx. 150 mg/kg/day, FIG. 9): much less staining
- reduction in VCAM-1 expression in aorta sections (VCAM-1 [11]): more than 75%
- VCAM-1 expression in aorta (VCAM-1 [11]; oral, 150 mg/kg/day): marked inhibition
- reduction in macrophage accumulation in aorta sections [12]: more than 75%
- macrophage accumulation ([12]; oral, 150 mg/kg/day): marked inhibition
- serum cholesterol after termination of dosing ([13]; day 29, after 100 mg/kg/day oral for two weeks): returned to the pretreatment level
- lowering of LDL, reversibility ([13]; during and after administration, FIG. 12): reversible lowering of LDL
- effect on HDL [13]: without effecting HDL
- effect on total cholesterol and LDL, monkeys vs mice ([13]; monkeys compared with mice): significantly more effective at reducing both cholesterol and LDL in rabbits and monkeys than in mice
- effect on HDL [13, 20]: does not affect HDL
- LDL cholesterol ([13]; oral, two weeks): lowers
- total plasma cholesterol ([13]; oral, two weeks): lowers
- plasma level of MSE as a function of days [14]: remained fairly constant
- effect on HDL (apoE-knock out mice): without affecting HDL
- effect on total cholesterol and LDL (apoE-knock out mice): a minimal if any, effect
- effect on HDL (apoE-knock out mice; [20]): does not affect HDL
- apoB-containing lipoproteins (apoE-knock out mice; oral, two weeks, apoE-knock out mice): selectively lowers
- mutagenicity (bacteria): not a mutagen
- mortality (rats; oral, two weeks): did not result in any mortality
- changes in liver morphology or histopathology (rats; rat, in vivo, po): not accompanied with changes in liver morphology or histopathology
- hematocrit values (rats; rat, in vivo, po): no effect
- serum LDH elevation (rats; rat, in vivo, po): not statistically different from the untreated group
- serum SGOT elevation (rats; rat, in vivo, po): not statistically different from the untreated group
- serum SGPT elevation (rats; rat, in vivo, po): not statistically different from the untreated group
- serum alkaline phosphatase elevation (rats; rat, in vivo, po): not statistically different from the untreated group
- serum electrolyte values (rats; rat, in vivo, po): no effect
- effect on HDL (rabbits): reduces HDL only to a small extent
- effect on total cholesterol and LDL, rabbits vs mice (rabbits; rabbits compared with mice): significantly more effective at reducing both cholesterol and LDL in rabbits and monkeys than in mice
- apoB-containing lipoproteins (C57 black mice): selectively lowers
- effect on HDL (C57 black mice): without affecting HDL
- effect on VCAM-1 expression (VCAM-1 [15]): block the induced expression of the endothelial cell surface adhesion molecule VCAM-1
- VCAM-1 expression, all species tested (VCAM-1 [15]; all species tested): inhibits the expression of VCAM-1 in all species tested

Compound: CC(C)(Sc1cc(C(C)(C)C)c(O)c(C(C)(C)C)c1)Sc1cc(C(C)(C)C)c(O)c(C(C)(C)C)c1 [probucol, 4,4'-(isopropylidenedithio) bis(2,6-di-tert-butylphenol), reference compound]
- VCAM-1 expression as a percentage of VCAM-1 expression induced by TNF alone (VCAM-1 [5]): does not have an appreciable effect on VCAM
- ICAM-1 expression as a percentage of ICAM-1 expression induced by TNF alone (ICAM-1): no effect on ICAM expression
- reduction in lipoprotein fractions (cholesterol) (lipid-fed rabbits): only HDL cholesterol
- reduction in VCAM-1 expression in aorta sections (VCAM-1 [11]): less than 25%
- reduction in macrophage accumulation in aorta sections [12]: less than 25%
- effect on total cholesterol and LDL (apoE-knock out mice): a minimal if any, effect
- effect on HDL (rabbits): reduces HDL significantly
- effect on LDL (rabbits; species not restated for probucol): reduces LDL only to a small extent
- effect on VCAM-1 expression (VCAM-1 [15]): does not significantly affect VCAM-1 expression
- progression of atherosclerosis [16]: slow the progression of atherosclerosis
- solubility in water [17]: almost insoluble in water
